Reference: ChEMBL document CHEMBL1201862, “PubChem BioAssay data set” (2004)
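Five concentrations, 48 hours, 96-well plates. The concentration for 50% growth inhibition is given as GI50.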 Activity calls are given as the source filed them. Rule as the data show it: active = GI50 up to about 1.1 µM and inactive = higher.

Columns and labels:
Assay in all cases: NCI tumour cell line growth inhibition, 48 h
[1] = tested on: SNB-19
[2] = tested on: SF-295
[3] = tested on: IGROV-1
[4] = tested on: TK-10
[5] = tested on: UACC-62
[6] = tested on: RPMI-8226
[7] = tested on: OVCAR-5
[8] = tested on: SW-620
[9] = tested on: EKVX
[10] = tested on: CCRF-CEM
[11] = tested on: OVCAR-4
[12] = tested on: M14
[13] = tested on: UACC-257
[14] = tested on: HL-60
[15] = tested on: HCC 2998
[16] = tested on: U-251
[17] = tested on: T47D
[18] = tested on: MDA-MB-231
[19] = tested on: MDA-MB-435

| SMILES | GI50 [1] | GI50 [2] | GI50 [3] | GI50 [4] | GI50 [5] | GI50 [6] | GI50 [7] | GI50 [8] | GI50 [9] | GI50 [10] | GI50 [11] | GI50 [12] | GI50 [13] | GI50 [14] | GI50 [15] | GI50 [16] | GI50 [17] | GI50 [18] | GI50 [19] |
| --- | --- | --- | --- | --- | --- | --- | --- | --- | --- | --- | --- | --- | --- | --- | --- | --- | --- | --- | --- |
| O=C(Oc1ccc(Cl)cc1[N+](=O)[O-])c1ccccc1 | > 100 µM (inactive) | > 100 µM (inactive) | > 100 µM (inactive) | > 100 µM (inactive) | > 100 µM (inactive) | 91.4 µM (inactive) | 57.1 µM (inactive) | > 100 µM (inactive) | > 100 µM (inactive) | 73.6 µM (inactive) | 43.4 µM (inactive) | > 100 µM (inactive) | > 100 µM (inactive) | 65.6 µM (inactive) | > 100 µM (inactive) | 38.5 µM (inactive) | – | – | – |
| CC1=C(CO)C(=O)OC(C(C)C2CCC3C4CC5OC56C(O)C(N5CC5)=CC(=O)C6(C)C4CCC23C)C1 (centres undefined) | 2.04 µM (inactive) | 16.5 µM (inactive) | 3.47 µM (inactive) | 10.1 µM (inactive) | 10.5 µM (inactive) | 3.35 µM (inactive) | 17.4 µM (inactive) | 2.56 µM (inactive) | 12.2 µM (inactive) | 2.61 µM (inactive) | 7.19 µM (inactive) | 12.1 µM (inactive) | 11.9 µM (inactive) | 1.61 µM (inactive) | 2.93 µM (inactive) | 4.22 µM (inactive) | – | – | – |
| COc1cc2nc(-c3cccs3)nc(N3CCN(c4ccccc4)CC3)c2cc1OC | 68.1 µM (inactive) | > 100 µM (inactive) | > 100 µM (inactive) | > 100 µM (inactive) | > 100 µM (inactive) | > 100 µM (inactive) | > 100 µM (inactive) | > 100 µM (inactive) | > 100 µM (inactive) | – | > 100 µM (inactive) | > 100 µM (inactive) | > 100 µM (inactive) | > 100 µM (inactive) | – | > 100 µM (inactive) | > 100 µM (inactive) | > 100 µM (inactive) | > 100 µM (inactive) |
| CC(=O)N/C(=C\c1cccc([N+](=O)[O-])c1)c1nc2ccc3c(c2[nH]1)C(=O)c1ccccc1C3=O | > 100 µM (inactive) | > 100 µM (inactive) | 10.4 µM (inactive) | > 56 µM (inactive) | > 49.8 µM (inactive) | 5.04 µM (inactive) | > 93.3 µM (inactive) | 31.9 µM (inactive) | 12.7 µM (inactive) | 0.885 µM (active) | > 65.9 µM (inactive) | 70.3 µM (inactive) | – | 2.76 µM (inactive) | > 100 µM (inactive) | 45.6 µM (inactive) | – | – | – |
